Laboratory results: PMC4773385, “Drug design from the cryptic inhibitor envelope” (Nature Communications, 2016)
Values after ≈ are worked out from the molar mass of the structure shown. Where two headings read alike, the source gives them in different places.

What was measured:
[1] = molecular target: T1, Escherichia coli LpxC (Escherichia coli, UniProt P0A725); experiment: LpxC enzymatic assay (radiolabelled substrate, slow tight-binding kinetics); type: biochemical
T1 sequence (P0A725 1-305): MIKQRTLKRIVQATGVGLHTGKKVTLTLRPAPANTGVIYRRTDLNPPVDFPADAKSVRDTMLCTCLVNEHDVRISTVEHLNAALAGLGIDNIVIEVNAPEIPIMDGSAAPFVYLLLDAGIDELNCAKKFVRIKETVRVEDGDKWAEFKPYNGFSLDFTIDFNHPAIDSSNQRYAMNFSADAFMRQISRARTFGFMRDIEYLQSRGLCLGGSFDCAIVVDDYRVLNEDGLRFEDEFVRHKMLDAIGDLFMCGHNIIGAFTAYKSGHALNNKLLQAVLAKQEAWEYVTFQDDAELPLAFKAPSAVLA
Method: The radiolabelled substrate for the LpxC enzymatic assays, [α-^32P] UDP-3-O-[(R)-3-hydroxymyristoyl]-N-acetylglucosamine, and the unlabelled carrier substrate were prepared as previously described. […] Serial twofold dilutions of each inhibitor were prepared in DMSO and added to the reaction mixture with a 10-fold dilution. The assays were initiated by addition of purified LpxC protein into the reaction mix with 1:4 dilution to the final concentration as specified.
The KM value was determined by varying substrate concentrations from 0.4 to 50 μM with 0.2 nM of LpxC. To study the slow, tight-binding inhibition, LpxC activity was assessed in the presence of varying inhibitor concentrations. […] The following time-dependent equation was used to fit the data: […]
The Ki* was determined by analysing the rate of product accumulation after formation of the stable EI* complex. […] The Morrison's quadratic equation was used to fit the fractional activity data to determine Ki^*app:
where [E]T and [I]T represent the total enzyme and inhibitor concentrations, respectively. The inhibition constant Ki* is converted from Ki^*app according to the following relationship:
For two-step slow-binding inhibition, kinetic parameters k5, k6 and Ki were extracted from curve fitting of experimental kobs values to inhibitor concentrations based on equations (5 and 6).

[2] = tested on: Escherichia coli W3110; experiment: MIC assay; type: cell-based; details: for MIC: E. coli
[3] = tested on: Salmonella typhimurium LT2; experiment: MIC assay; type: cell-based
[4] = tested on: Vibrio cholerae P4 (P27459DctxAB::KmR, SmR); experiment: MIC assay; type: cell-based; set-up: MIC: unit not given here
[5] = tested on: Klebsiella pneumoniae 10031; experiment: MIC assay; type: cell-based; set-up: MIC: unit not given here
[6] = tested on: Enterobacter cloacae; experiment: MIC assay; type: cell-based; set-up: MIC: unit not given here
[7] = tested on: Morganella morganii; experiment: MIC assay; type: cell-based
[8] = tested on: Proteus mirabilis; experiment: MIC assay; type: cell-based; set-up: MIC: unit not given here
[9] = tested on: Pseudomonas aeruginosa PAO1; experiment: MIC assay; type: cell-based
[10] = tested on: Chlamydia trachomatis; experiment: Minimal chlamydiacidal concentration (MCC); type: cell-based; set-up: Minimal chlamydiacidal concentration (MCC), listed in MIC column: unit not given here
[11] = tested on: Acinetobacter baumannii 17978; experiment: MIC assay; type: cell-based
[12] = E. coli LpxC, 20 pM enzyme, 5 μM substrate, 30 °C, Morrison fit, read-out: Ki* (inhibition constant of the stable EI* complex)
[13] = fit of kobs vs inhibitor concentration, 30 μM substrate, 0.1 nM enzyme

Structure (SMILES): C[C@](O)([C@H](NC(=O)c1ccc(C#CC#Cc2ccc(N)cc2)cc1)C(=O)NO)C(F)(F)F [LPC-083]
- compromised inhibitory effect (Ki*) over parent compound LPC-037 ([1]; E. coli LpxC): ninefold
- inhibition constant worse than LPC-011 ([1]; E. coli LpxC): fivefold
- Ki [1, 12]: 0.125 ± 0.004 nM
- MIC [2]: 0.1 µg/mL (≈ 0.225 µM)

Structure (SMILES): C[C@@H](O)[C@H](NC(=O)c1ccc(C#CC#Cc2ccc(N)cc2)cc1)C(=O)NO [LPC-011]
- MIC [2]: 0.04 µg/mL (≈ 0.106 µM)
- MIC [3]: 0.06 µg/mL (≈ 0.159 µM)
- MIC [4]: 0.063
- MIC [5]: 0.01
- MIC [6]: 0.052
- MIC [7]: 0.039 g/mL
- MIC [8]: 0.13

Structure (SMILES): CC(C)(N)[C@H](NC(=O)c1ccc(C#CC#Cc2ccc(N)cc2)cc1)C(=O)NO [LPC-040]
- Ki [1, 12]: 0.012 ± 0.001 nM

Structure (SMILES): CC(C)(O)[C@H](NC(=O)c1ccc(C#CC#Cc2ccc(N)cc2)cc1)C(=O)NO [LPC-037]
- Ki [1, 12]: 0.014 ± 0.001 nM

Structure (SMILES): C[C@@](O)(C(F)F)[C@H](NC(=O)c1ccc(C#CC#Cc2ccc(N)cc2)cc1)C(=O)NO [LPC-058]
- enhancement of potency (Ki*) over CHIR-090 ([1]; E. coli LpxC): 44 fold
- enhancement of potency (Ki*) over LPC-011 ([1]; E. coli LpxC): 7 fold
- Ki [1, 12]: 0.0035 ± 0.0002 nM
- k5 (forward rate from EI to EI*) [1, 13]: 0.39 ± 0.02 min⁻¹
- k6 (reverse rate from EI* to EI) [1, 13]: 0.0014 ± 0.0001 min⁻¹
- Ki ([1]; fit of kobs vs inhibitor concentration, 30 μM substrate, 0.1 nM enzyme, Ki* constrained, read-out: Ki (inhibition constant of the initial encounter complex EI)): 0.973 ± 0.128 nM
- Enhancement (MIC CHIR-090/MIC LPC-058) ([2]; Escherichia coli W3110): 7.2
- Enhancement (MIC LPC-011/MIC LPC-058) ([2]; Escherichia coli W3110): 2.2
- Enhancement (MIC CHIR-090/MIC LPC-058) [9]: 5.0
- Enhancement (MIC LPC-011/MIC LPC-058) [9]: 2.0
- MIC [9]: 0.167 µg/mL (≈ 0.391 µM)
- Enhancement (MIC CHIR-090/MIC LPC-058) [3]: 12
- Enhancement (MIC LPC-011/MIC LPC-058) [3]: 2.8
- MIC [3]: 0.021 µg/mL (≈ 0.0491 µM)
- Enhancement (MIC CHIR-090/MIC LPC-058) [4]: 31
- Enhancement (MIC LPC-011/MIC LPC-058) [4]: 3.9
- MIC [4]: 0.016
- Enhancement (MIC CHIR-090/MIC LPC-058) [5]: 13
- Enhancement (MIC LPC-011/MIC LPC-058) [5]: 3.8
- MIC [5]: 0.0026
- Enhancement (MIC CHIR-090/MIC LPC-058) [6]: 12
- Enhancement (MIC LPC-011/MIC LPC-058) [6]: 2.0
- MIC [6]: 0.026
- Enhancement (MIC CHIR-090/MIC LPC-058) [7]: 55
- Enhancement (MIC LPC-011/MIC LPC-058) [7]: 2.0
- MIC [7]: 0.019 g/mL
- Enhancement (MIC CHIR-090/MIC LPC-058) [8]: 32
- Enhancement (MIC LPC-011/MIC LPC-058) [8]: 5.0
- MIC [8]: 0.026
- Minimal chlamydiacidal concentration (MCC), listed in MIC column [10]: 0.08
- Enhancement (MIC CHIR-090/MIC LPC-058) ([10]; MCC): 100
- Enhancement (MIC LPC-011/MIC LPC-058) ([10]; MCC): 6.0
- MIC ([11]; Acinetobacter baumannii): 0.39 µg/mL (≈ 0.912 µM)
- Enhancement (MIC CHIR-090/MIC LPC-058) ([11]; Acinetobacter baumannii 17978): > 128
- Enhancement (MIC LPC-011/MIC LPC-058) ([11]; Acinetobacter baumannii 17978): 25
